Laboratory results: patent US7064204B2, “Pharmaceutically active compounds having a tricyclic pyrazolotriazolopyrimidine ring structure and methods of use” (King Pharmacueticals Reserch and Development, Inc., priority 2002, dated 2006)

Key:
[1] = target: T1, human A3 adenosine receptors (Homo sapiens, UniProt P0DMS8); test: Displacement of [125I]AB MECA binding at human A3 adenosine receptors expressed in HEK-293 cells; design: expressed in transfected cells; settings: Table 2, footnote a: [125I]AB MECA, human A3, HEK-293 cells
T1 sequence (P0DMS8 1-318): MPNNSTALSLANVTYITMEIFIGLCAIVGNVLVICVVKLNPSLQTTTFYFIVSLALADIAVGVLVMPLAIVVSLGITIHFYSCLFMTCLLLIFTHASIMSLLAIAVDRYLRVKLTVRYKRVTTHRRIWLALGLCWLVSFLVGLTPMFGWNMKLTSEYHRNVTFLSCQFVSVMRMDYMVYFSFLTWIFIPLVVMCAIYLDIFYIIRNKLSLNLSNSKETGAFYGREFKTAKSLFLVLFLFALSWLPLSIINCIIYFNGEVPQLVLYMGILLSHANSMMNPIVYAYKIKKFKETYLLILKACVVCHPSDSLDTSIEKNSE

[2] = target: T2, human A2A adenosine receptors (Homo sapiens, UniProt P29274); test: Displacement of [3H]SCH58261 binding at human A2A adenosine receptors expressed in CHO cells; settings: for Ki: CHO cells; for affinity for A2A adenosine receptor subtype / selectivity for A2A versus the other adenosine receptor subtypes: in words; for affinity for A2A adenosine receptor subtype: discussion of Tables 2 and 3
T2 construct: expressed in transfected cells; host or cells: CHO cells

[3] = target: T1, human A3 adenosine receptors; test: Displacement of [3H]MRE 3008F20 binding at human A3 adenosine receptors expressed in CHO cells; design: expressed in transfected cells; host or cells: CHO cells; settings: for selectivity for A3 versus the other adenosine receptor subtypes / affinity for / interaction with A3 adenosine receptor subtype: in words; for affinity for / interaction with A3 adenosine receptor subtype: discussion of Tables 2 and 3
[4] = Water solubility (stated in words); assay type: physicochemical
[5] = target: T3, human A1 adenosine receptors (Homo sapiens, UniProt P30542); test: Displacement of [3H]DPCPX binding at human A1 adenosine receptors expressed in CHO cells
T3 construct: expressed in transfected cells; host or cells: CHO cells
T3 sequence (P30542 1-326): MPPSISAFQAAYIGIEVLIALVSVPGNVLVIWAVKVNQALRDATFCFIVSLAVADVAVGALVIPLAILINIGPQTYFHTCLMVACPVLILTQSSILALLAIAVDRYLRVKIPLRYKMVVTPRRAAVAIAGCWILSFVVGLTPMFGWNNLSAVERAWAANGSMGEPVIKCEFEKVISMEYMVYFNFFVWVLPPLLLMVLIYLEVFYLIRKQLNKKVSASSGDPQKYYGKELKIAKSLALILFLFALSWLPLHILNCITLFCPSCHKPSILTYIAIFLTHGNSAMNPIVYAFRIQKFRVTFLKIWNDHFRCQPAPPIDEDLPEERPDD

[6] = target: T4, human A2B adenosine receptors (Homo sapiens, UniProt P29275); test: Displacement of [3H]DPCPX binding at human A2B adenosine receptors expressed in HEK-293 cells
T4 construct: expressed in transfected cells; host or cells: HEK-293 cells
T4 sequence (P29275 1-332): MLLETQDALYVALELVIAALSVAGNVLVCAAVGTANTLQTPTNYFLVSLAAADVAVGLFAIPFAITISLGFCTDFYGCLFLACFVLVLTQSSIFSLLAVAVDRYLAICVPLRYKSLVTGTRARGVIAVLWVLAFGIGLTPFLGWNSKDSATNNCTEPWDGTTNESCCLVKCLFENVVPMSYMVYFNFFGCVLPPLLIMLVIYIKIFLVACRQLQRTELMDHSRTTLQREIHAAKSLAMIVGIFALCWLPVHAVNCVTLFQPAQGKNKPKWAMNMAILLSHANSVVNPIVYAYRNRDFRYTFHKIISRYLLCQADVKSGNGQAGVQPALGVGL

[7] = Table 3: [3H]SCH58261, human A2A
[8] = Table 3: [3H]MRE 3008F20, human A3, CHO cells
[9] = Table 3: [3H]DPCPX, human A1, CHO cells
[10] = Table 3: [3H]DPCPX, HEK-293 cells
[11] = Table 2, footnote b: [3H]SCH58261, human A2A
[12] = Table 2, footnote b: [3H]MRE 3008F20, human A3, CHO cells
[13] = Table 2, footnote b: [3H]DPCPX, human A1

T2 sequence (P29274 whole entry): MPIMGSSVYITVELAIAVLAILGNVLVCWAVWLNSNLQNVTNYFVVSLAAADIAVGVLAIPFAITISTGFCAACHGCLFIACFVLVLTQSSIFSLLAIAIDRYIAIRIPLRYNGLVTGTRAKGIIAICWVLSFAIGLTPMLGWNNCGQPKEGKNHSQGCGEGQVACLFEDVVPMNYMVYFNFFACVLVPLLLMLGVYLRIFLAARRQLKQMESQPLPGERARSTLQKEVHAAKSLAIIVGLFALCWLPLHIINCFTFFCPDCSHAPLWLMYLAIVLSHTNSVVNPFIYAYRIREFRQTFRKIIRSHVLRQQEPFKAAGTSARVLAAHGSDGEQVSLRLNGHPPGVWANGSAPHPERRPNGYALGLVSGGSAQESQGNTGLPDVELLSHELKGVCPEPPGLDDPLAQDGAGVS

Row | SMILES | Ki [2, 7] [nM] | Ki [3, 8] [nM] | affinity for / interaction with A3 adenosine receptor subtype [3] | affinity for A2A adenosine receptor subtype [2] | Ki [5, 9] [nM] | Ki [6, 10] [nM] | also measured
1 | Nc1nc2c(cnn2CCc2ccccc2)c2nc(-c3ccco3)nn12 [SCH 58261, 5-amino-7-(2-phenylethyl)-2-(2-furyl)pyrazolo[4,3-e]1,2,4-triazolo[1,5-c]pyrimidine] |  |  |  |  |  |  | Ki [1]: > 1000 nM
2 | CCNc1c2c(nc(NC(=O)Nc3ccc(OC)cc3)n3nc(-c4ccco4)nc23)nn1C.Cl [Compound 55, 1-(9-Ethylamino-2-furan-2-yl-8-methyl-8H-pyrazolo[4,3-e][1,2,4]triazolo[1,5-c]pyrimidin-5-yl)-3-(4-methoxy-phenyl)-urea hydrochloride salt] | 16 | 9 | increased |  |  |  | selectivity for A3 versus the other adenosine receptor subtypes [3]: very low; water solubility [4]: complete water solubility; Ki ([5]; Table 3: [3H]DPCPX, human A1, CHO cells, hydrochloride salt): 100 nM; Ki ([6]; Table 3: [3H]DPCPX, HEK-293 cells, hydrochloride salt): 23 nM
3 | CSc1c2c(nc(NC(=O)Cc3ccc(CC(C)C)cc3)n3nc(-c4ccco4)nc23)nn1C [Compound 48, N-(2-Furan-2-yl-8-methyl-9-methylsulfanyl-8H-pyrazolo[4,3-e][1,2,4]triazolo[1,5-c]pyrimidin-5-yl)-2-(4-isobutyl-phenyl)-acetamide] | 50 |  | decreased | maintains A2A affinity | 780 | 190 | 
4 | CSc1c2c(nc(NC(=O)Cc3ccc4c(c3)OCO4)n3nc(-c4ccco4)nc23)nn1C [Compound 49, 2-Benzo[1,3]dioxol-5-yl-N-(2-furan-2-yl-8-methyl-9-methylsulfanyl-8H-pyrazolo[4,3-e][1,2,4]triazolo[1,5-c]pyrimidin-5-yl)-acetamide] | 4.1 | 110 | decreased |  | 70 | 30 | 
5 | CCNc1c2c(nc(NC(=O)Cc3ccc4c(c3)OCO4)n3nc(-c4ccco4)nc23)nn1C [Compound 50, 2-Benzo[1,3]dioxol-5-yl-N-(9-ethylamino-2-furan-2-yl-8-methyl-8H-pyrazolo[4,3-e][1,2,4]triazolo[1,5-c]pyrimidin-5-yl)-acetamide] | 61 | 183 |  |  | 136 | 65 | 
6 | CCNc1c2c(nc(NC(=O)Nc3ccc(OC)cc3)n3nc(-c4ccco4)nc23)nn1C [Compound 44, 1-(9-Ethylamino-2-furan-2-yl-8-methyl-8H-pyrazolo[4,3-e][1,2,4]triazolo[1,5-c]pyrimidin-5-yl)-3-(4-methoxy-phenyl)-urea] |  | 17 | good increase in A3 affinity | decrease of A2A affinity | 150 | 37 | 
7 | CCOc1ccccc1-c1nc2c3cnn(CCc4ccccc4)c3nc(N)n2n1 [Compound 5c, 2-(2-Ethoxy-phenyl)-7-phenethyl-7H-pyrazolo[4,3-e][1,2,4]triazolo[1,5-c]pyrimidin-5-ylamine] |  |  | poor affinity |  |  |  | Ki [2, 11]: > 1000 nM; Ki [3, 12]: 348 nM; selectivity for A3 versus the other adenosine receptor subtypes [3]: complete selectivity; Ki [5, 13]: > 1000 nM; Ki ([6]; Table 2, footnote b: [3H]DPCPX): > 1000 nM
8 | CCCSc1c2c(nc(N)n3nc(-c4ccco4)nc23)nn1C [Compound 42, 2-Furan-2-yl-8-methyl-9-propylsulfanyl-8H-pyrazolo[4,3-e][1,2,4]triazolo[1,5-c]pyrimidin-5-ylamine] | 2.1 | 224 |  | maintains the A2A affinity | 9 | 69 | selectivity for A2A versus the other adenosine receptor subtypes [2]: increases the selectivity
9 | Nc1nc2c(cnn2CCc2ccccc2)c2nc(-c3ccc(OCC(=O)O)cc3)nn12 [Compound 7, [4-(5-Amino-7-phenethyl-7H-pyrazolo[4,3-e][1,2,4]triazolo[1,5-c]pyrimidin-2-yl)-phenoxy]-acetic acid] |  |  |  |  |  |  | Ki [2, 11]: > 1000 nM; Ki [3, 12]: > 1000 nM; Ki [5, 13]: > 1000 nM; Ki ([6]; Table 2, footnote b: [3H]DPCPX): > 1000 nM
10 | CCOC(=O)COc1ccc(-c2nc3c4cnn(CCc5ccccc5)c4nc(N)n3n2)cc1 [Compound 6, [4-(5-Amino-7-phenethyl-7H-pyrazolo[4,3-e][1,2,4]triazolo[1,5-c]pyrimidin-2-yl)-phenoxy]-acetic acid ethyl ester] |  |  |  |  |  |  | Ki [2, 11]: > 1000 nM; Ki [3, 12]: > 1000 nM; Ki [5, 13]: > 1000 nM; Ki ([6]; Table 2, footnote b: [3H]DPCPX): > 1000 nM
11 | CSc1c2c(nc(N)n3nc(-c4ccco4)nc23)nn1C [Compound 41, 2-Furan-2-yl-8-methyl-9-methylsulfanyl-8H-pyrazolo[4,3-e][1,2,4]triazolo[1,5-c]pyrimidin-5-ylamine] | 1.2 | 35 |  | good affinity | 8.4 | 10.3 | selectivity for A2A versus the other adenosine receptor subtypes [2]: low selectivity
12 | CSc1c2c(nc(N)n3nc(-c4ccc(CN5CCN(C)CC5)o4)nc23)nn1C [Compound 56] |  |  |  |  |  |  | water solubility [4]: significant water solubility
13 | CCNc1c2c(nc(N)n3nc(-c4ccco4)nc23)nn1C [Compound 38, N9-Ethyl-2-furan-2-yl-8-methyl-8H-pyrazolo[4,3-e][1,2,4]triazolo[1,5-c]pyrimidiine-5,9-diamine] |  | 225 |  | good affinity | 50 | 81 | 
